Results taken from PubChem BioAssay AID256 (DTP/NCI, 2004).
“And” between values parts separate entries of the source, which are not always exact repeats. Equal entries are not always repeated. Toxic doses and inconclusive results are not listed. The calls were made as follows: active = survival T/C of 150% or more; inactive = T/C below 125% in these data.

Test system: CD2F1 mice, L1210 leukemia ip, survival T/C
Test: NCI In Vivo Anticancer Drug Screen. Data for tumor model L1210 Leukemia (intraperitoneal) in CD2F1 (CDF1) mice
Conditions: higher = longer survival
Outline: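 In this screen, transplantable tumors were grown in mice given either the compound or its vehicle. Results were expressed as the treated measurement relative to the control measurement.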

[1] = endpoint: mean survival time, dose: 100.0 mg/kg/injection, schedule: Q04DX002 (ip), vehicle: saline with Tween-80
[2] = endpoint: mean survival time, dose: 200.0 mg/kg/injection, schedule: Q04DX002 (ip), vehicle: saline with Tween-80
[3] = endpoint: mean survival time, dose: 400.0 mg/kg/injection, schedule: Q04DX002 (ip), vehicle: saline with Tween-80
[4] = endpoint: mean survival time, dose: 100.0 mg/kg/injection, schedule: Q01DX009 (ip), vehicle: saline with Tween-80
[5] = endpoint: mean survival time, dose: 200.0 mg/kg/injection, schedule: Q01DX009 (ip), vehicle: saline with Tween-80
[6] = endpoint: mean survival time, dose: 50.0 mg/kg/injection, schedule: Q01DX009 (ip), vehicle: saline with Tween-80

Measured: T/C

CCCOC(=O)Nc1ccccn1
inactive: [1] 108 % of control | [2] 108 % of control | [3] 97 % of control

S=C(NCNC(=S)c1ccncc1)c1ccncc1
inactive: endpoint: median survival time, dose: 25.0 mg/kg/injection, schedule: Q01DX009 (ip), vehicle: saline with Tween-80 102 % of control | endpoint: median survival time, dose: 50.0 mg/kg/injection, schedule: Q01DX009 (ip), vehicle: saline with Tween-80 103 % of control | endpoint: median survival time, dose: 100.0 mg/kg/injection, schedule: Q01DX009 (ip), vehicle: saline with Tween-80 106 % of control | endpoint: median survival time, dose: 200.0 mg/kg/injection, schedule: Q01DX009 (ip), vehicle: saline with Tween-80 104 % of control | endpoint: median survival time, dose: 400.0 mg/kg/injection, schedule: Q01DX009 (ip), vehicle: saline with Tween-80 104 % of control

O=c1[nH]c(=O)c2ncn(C3OC(CO)C(O)C3O)c2[nH]1.O=c1[nH]c(=O)c2ncn(C3OC(CO)C(O)C3O)c2[nH]1.[NH2-].[NH2-].[Pt+2] (stereo not drawn)
inactive: endpoint: mean survival time, dose: 6.25 mg/kg/injection, schedule: Q#A X018 (ip), vehicle: water 116 % of control | endpoint: mean survival time, dose: 12.5 mg/kg/injection, schedule: Q04DX003 (ip), vehicle: water 106 % of control | endpoint: mean survival time, dose: 12.5 mg/kg/injection, schedule: Q#A X018 (ip), vehicle: water 116 % of control | endpoint: mean survival time, dose: 25.0 mg/kg/injection, schedule: Q#A X018 (ip), vehicle: water 124 % of control | endpoint: mean survival time, dose: 50.0 mg/kg/injection, schedule: Q04DX003 (ip), vehicle: water 106 % of control | endpoint: mean survival time, dose: 100.0 mg/kg/injection, schedule: Q04DX003 (ip), vehicle: water 111 % of control | endpoint: mean survival time, dose: 200.0 mg/kg/injection, schedule: Q04DX003 (ip), vehicle: water 106 % of control | endpoint: mean survival time, dose: 400.0 mg/kg/injection, schedule: Q04DX003 (ip), vehicle: water 118 % of control

O=c1[nH]cc(F)c(=O)[nH]1.[Tl]
inactive: endpoint: mean survival time, dose: 1.5 mg/kg/injection, schedule: Q01DX009 (ip), vehicle: water 106 % of control | endpoint: mean survival time, dose: 3.1 mg/kg/injection, schedule: Q01DX009 (ip), vehicle: water 112 % of control | endpoint: mean survival time, dose: 6.25 mg/kg/injection, schedule: Q01DX009 (ip), vehicle: water 124 % of control | endpoint: mean survival time, dose: 12.5 mg/kg/injection, schedule: Q01DX009 (ip), vehicle: water 91 % of control

CCCCN(CCCC)N=O
inactive: endpoint: mean survival time, dose: 25.0 mg/kg/injection, schedule: Q01DX009 (ip), vehicle: Klucel (hydroxypropylcellulose) (HPC) 96 % of control | endpoint: mean survival time, dose: 50.0 mg/kg/injection, schedule: Q01DX009 (ip), vehicle: Klucel (hydroxypropylcellulose) (HPC) 90 % of control | endpoint: mean survival time, dose: 100.0 mg/kg/injection, schedule: Q01DX009 (ip), vehicle: Klucel (hydroxypropylcellulose) (HPC) 98 % of control

C=CC/C(C)=C/C=C/C(C)C(=O)O (stereo not drawn)
inactive: [4] 100 % of control | endpoint: mean survival time, dose: 100.0 mg/kg/injection, schedule: Q04DX003 (ip), vehicle: saline with Tween-80 98 % of control | [5] 94 % of control | endpoint: mean survival time, dose: 200.0 mg/kg/injection, schedule: Q04DX003 (ip), vehicle: saline with Tween-80 93 % of control | endpoint: mean survival time, dose: 400.0 mg/kg/injection, schedule: Q01DX009 (ip), vehicle: saline with Tween-80 104 % of control | endpoint: mean survival time, dose: 400.0 mg/kg/injection, schedule: Q04DX003 (ip), vehicle: saline with Tween-80 95 % of control

CC1CCCCCCCCCCC12OCCO2 (stereo not drawn)
inactive: [1] 87 % of control | [2] 98 % of control | [3] 106 % of control

Nc1nc(N)c2nc(-c3ccccc3)c(N)nc2n1
inactive: endpoint: mean survival time, dose: 12.5 mg/kg/injection, schedule: Q01DX009 (ip), vehicle: saline with Tween-80 97 % of control | endpoint: mean survival time, dose: 12.5 mg/kg/injection, schedule: Q04DX003 (ip), vehicle: saline with Tween-80 102 % of control | endpoint: mean survival time, dose: 25.0 mg/kg/injection, schedule: Q01DX009 (ip), vehicle: saline with Tween-80 98 % of control | endpoint: mean survival time, dose: 25.0 mg/kg/injection, schedule: Q04DX003 (ip), vehicle: saline with Tween-80 95 % of control | [6] 94 % of control | endpoint: mean survival time, dose: 50.0 mg/kg/injection, schedule: Q04DX003 (ip), vehicle: saline with Tween-80 98 % of control

CC(C)C(=O)C1CCCCC1
inactive: [6] 103 % of control | [4] 95 % of control | [5] 95 % of control

ClCC[Se](Cl)(Cl)c1ccccc1
inactive: endpoint: mean survival time, dose: 0.78 mg/kg/injection, schedule: Q01DX009 (ip), vehicle: saline 96 % of control and 110 % of control | endpoint: mean survival time, dose: 1.56 mg/kg/injection, schedule: Q01DX009 (ip), vehicle: saline 108 % of control | endpoint: mean survival time, dose: 3.12 mg/kg/injection, schedule: Q01DX009 (ip), vehicle: saline 108 % of control and 112 % of control | endpoint: mean survival time, dose: 6.25 mg/kg/injection, schedule: Q01DX009 (ip), vehicle: saline 115 % of control and 122 % of control

CCOC(=O)c1c(Cl)nc2ccccc2c1Cl
inactive: [6] 105 % of control | [4] 105 % of control | [5] 94 % of control
